Data published in patent EP0302423A2, “1-Phenyl-3-(1-piperazinyl)-1h-indazoles, a process and intermediates for their preparation, and the use thereof as medicaments” (HOECHST-ROUSSEL PHARMACEUTICALS INCORPORATED, priority 1987, dated 1989).
Where a name gives a salt, the structure may show the parent alone. Read-outs that look alike come from different tables or passages of the source.

Columns and labels:
Type in all cases: in vivo
mice [1] = test: tetrabenazine induced ptosis assay in mice (antidepressant activity); settings: for ED50: Mus musculus, ip, i.p. dose effecting calculated 50% inhibition of tetrabenazine-induced ptosis in mice, read-out: ANTI-DEPRESSANT ACTIVITY (% Inhibition of Ptosis) ED50 (mg/kg,i.p.)
Description: In this procedure, male mice (Charles River, CD-1), weighing about 20 to 39 g, are used in test groups of five animals. Test compounds are dissolved, or suspended with 1 drop of Tween-80, in distilled water and administered to the animals in volumes of 10 cc per kg of body weight. […] Tetrabenazine solution and the solvent used to dissolve, or suspend, the test compounds are administered by the same route and at the same intervals as the test compounds to a control group. […] The total score for each group of 5 animals will therefore vary from 0 to 20; these scores are used as the indications of the activity of the test compound. The vehicle-control group score is used as a determinate of the validity of each test.

male mouse = test: supramaximal electroshock (SES) assay (anticonvulsant activity); settings: for ED50: ip, read-out: ANTICONVULSANT ACTIVITY (% Inhibition of Convulsion) ED50 (mg/kg,i.p.)
mice [2] = test: phenyl-p-benzoquinone writhing assay in mice (analgesia); settings: Mus musculus, sc
[3] = male mouse, at peak activity time, protection against extensor tonus
[4] = calculated s.c. dose effecting approximately 50% inhibition of writhing in mice, at peak time, read-out: ANALGESIC ACTIVITY (% Inhibition of Writhing) ED50
[5] = read-out: ANALGESIC ACTIVITY (% Inhibition of Writhing) ED50 (mg/kg)

SMILES: Fc1ccc(-n2nc(N3CCNCC3)c3ccccc32)cc1 [1-(4-Fluorophenyl)-3-(1-piperazinyl)-1H-indazole]
- ED50 (mice [1]): 17.3 mg/kg

SMILES: CN1CCN(c2nn(-c3ccc(F)cc3)c3ccccc23)CC1.O=C(O)/C=C/C(=O)O [1-(4-Fluorophenyl)-3-(4-methyl-1-piperazinyl)-1H-indazole fumarate]
- ED50 (male mouse; [3]): 12.9 mg/kg
- % inhibition of ptosis at indicated screening dosage (i.p.) (mice [1]; 20 mg/kg, i.p., mice): 65% @ 20 mg/kg*
- ED50 (mice [2]; [4]): 0.8 mg/kg

SMILES: c1ccc(-n2nc(N3CCNCC3)c3ccccc32)cc1 [1-Phenyl-3-(1-piperazinyl)-1H-indazole hydrocloride]
- % inhibition of convulsions at indicated dosage (male mouse; 60 mg/kg, i.p., male mouse): 100% @ 60 mg/kg*
- ED50 (mice [1]): 25.4 mg/kg
- ED50 (mice [2]; [4]): 0.7 mg/kg

SMILES: CN1CCN(c2nn(-c3ccccc3)c3ccccc23)CC1.Cl [1-Phenyl-3-(4-methyl-1-piperazinyl)-1H-indazole hydrochloride]
- ED50 (male mouse; [3]): 14.6 mg/kg
- ED50 (mice [1]): 11.1 mg/kg
- ED50 (mice [2]; [4]): 1.6 mg/kg

SMILES: CCN1CCN(c2nn(-c3ccc(C(F)(F)F)cc3)c3ccccc23)CC1 [3-(4-Ethyl-1-piperazinyl)-1-[4-trifluoromethyl)phenyl]-1H-indazole fumarate]
- ED50 (male mouse; [3]): 8.2 mg/kg

SMILES: CN1CCN(c2nn(-c3ccc(C(F)(F)F)cc3)c3ccccc23)CC1.O=C(O)/C=C/C(=O)O [3-(4-Methyl-1-piperazinyl)-1-[4-(trifluoromethyl)phenyl]-1H-indazole fumarate]
- ED50 (male mouse; [3]): 27 mg/kg

SMILES: CP(C)(=O)CN1CCN(c2nn(-c3ccccc3)c3ccccc23)CC1 [3-[4-(Dimethylphosphinylmethyl)-1-piperazinyl]-1-phenyl-1H-indazole]
- ED50 (male mouse; [3]): 24.3 mg/kg

SMILES: NC(=O)N1CCN(c2nn(-c3ccccc3Cl)c3ccccc23)CC1 [4-[1-(2-chlorophenyl)-1H-indazol-3-yl]-1-piperazine carboxamide hemifumarate]
- ED50 (male mouse; [3]): 38.9 mg/kg

SMILES: NC(=O)N1CCN(c2nn(-c3ccc(F)cc3)c3ccccc23)CC1 [4-[1-(4-Fluorophenyl)-1H-indazol-3-yl]-1-piperazine carboxamide]
- ED50 (male mouse; [3]): 22.7 mg/kg

SMILES: CN(C)CCC=C1c2ccccc2CCc2ccccc21 [amitriptyline, reference compound]
- ED50 (mice [1]): 1.5 mg/kg

SMILES: CN(C)CCCN1c2ccccc2CCc2ccccc21 [imipramine, reference compound]
- ED50 (mice [1]; read-out: ANTI-[…] (% Inhibition of Ptosis) ED50 (mg/kg,i.p.)): 1.3 mg/kg

SMILES: CC(C)=CCN1CCC2(C)c3cc(O)ccc3CC1C2C (centres unmarked) [pentazocine, reference compound]
- ED50 (mice [2]; [5]): 1.3 mg/kg

SMILES: CCC1(c2ccccc2)C(=O)NC(=O)NC1=O [phenobarbitol, reference compound]
- ED50 (male mouse; Mus musculus): 8.4 mg/kg

SMILES: CCC(=O)O[C@](Cc1ccccc1)(c1ccccc1)[C@H](C)CN(C)C [propoxyphene, reference compound]
- ED50 (mice [2]; [5]): 3.9 mg/kg
